Test results published in patent US9833497B2, “Human originated EGF domain proteins and use of the same” (CHENGDU SOURCEBIO LIMITED-LIABILITY COMPANY, priority 2013, dated 2017).

How the values were obtained:
Assay type in all cases: cell-based
[1] = tested on: Serratia marcescens; assay: MIC against Gram-negative bacteria: Serratia marcescens
Summary of the method: (§1)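 Bacteria grown in LB at 37° C to McFarland 0.5, resuspended and seeded at 5×10^5 CFU/mL in 96-well plates. Purified human EGF-domain proteins two-fold serially diluted, triplicate wells; cultured at 37° C, shaking 175 rpm. MIC = lowest protein concentration with no growth.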

[2] = tested on: Citrobacter diversus; assay: MIC against Gram-negative bacteria: Citrobacter diversus
Summary of the method: as §1

[3] = tested on: Pseudomonas aeruginosa; assay: MIC against Gram-negative bacteria: Pseudomonas aeruginosa
Summary of the method: as §1

[4] = tested on: E. coli DH5α; assay: Antibacterial activity: MIC and growth curve against E. coli DH5α in 96-well plate; settings: minimal inhibitory concentration against E. coli DH5α; 96-well plate, 5×10^5 CFU/mL, 37° C., judged after 8 h
Summary of the method: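 MIC taken as lowest protein level with no bacterial growth, tracked by A600 every 30 min during 37 °C, 175 rpm culture. Two-fold protein series 50-12.5 μg/mL final, triplicate wells, against 5×10^5 CFU/mL of LB-washed mid-log cells.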

[5] = tested on: Proteus vulgaris; assay: MIC against Gram-negative bacteria: Proteus vulgaris
Summary of the method: as §1

[6] = tested on: Klebsiella pneumonia; assay: MIC against Gram-negative bacteria: Klebsiella pneumonia
Summary of the method: as §1

[7] = tested on: Proteus mirabilis; assay: MIC against Gram-negative bacteria: Proteus mirabilis
Summary of the method: as §1

[8] = tested on: Moraxella catarrhalis; assay: MIC against Gram-negative bacteria: Moraxella catarrhalis
Summary of the method: as §1

[9] = tested on: Enterobacter cloacae; assay: MIC against Gram-negative bacteria: Enterobacter cloacae
Summary of the method: as §1

[10] = tested on: Aeromonas hydrophila; assay: MIC against Gram-negative bacteria: Aeromonas hydrophila
Summary of the method: as §1

[11] = tested on: E. coli BL21; assay: MIC against Gram-negative bacteria: E. coli BL21
Summary of the method: as §1

[12] = S. marcescens, 10 h cultivation at 37° C., 5×10^5 CFU/mL
[13] = C. diversus, 10 h cultivation at 37° C., 5×10^5 CFU/mL
[14] = P. aeruginosa, 10 h cultivation at 37° C., 5×10^5 CFU/mL
[15] = P. vulgaris, 10 h cultivation at 37° C., 5×10^5 CFU/mL
[16] = K. pneumonia, 10 h cultivation at 37° C., 5×10^5 CFU/mL
[17] = P. mirabilis, 10 h cultivation at 37° C., 5×10^5 CFU/mL
[18] = M. catarrhalis, 10 h cultivation at 37° C., 5×10^5 CFU/mL
[19] = E. cloacae, 10 h cultivation at 37° C., 5×10^5 CFU/mL
[20] = A. hydrophila, 10 h cultivation at 37° C., 5×10^5 CFU/mL
[21] = E. coli BL21, 10 h cultivation at 37° C., 5×10^5 CFU/mL
[22] = 96-well plate, 5×10^5 CFU/mL, 37° C., 10 h
[23] = 10 h cultivation at 37° C., 5×10^5 CFU/mL, two-fold serial dilution

PRT1406 (EADCIDPGCSNHGVCIHGECHCSPGWGGSNCE; listed as Homo sapiens)
25 µg/mL: MIC against P. aeruginosa ([3]; Pseudomonas aeruginosa, 5×10^5 CFU/mL, 10 h cultivation at 37° C.) | MIC [4] | MIC against E. cloacae ([9]; Enterobacter cloacae, 5×10^5 CFU/mL, 10 h cultivation at 37° C.)
12.5 µg/mL: MIC against C. diversus ([2]; Citrobacter diversus, 5×10^5 CFU/mL, 10 h cultivation at 37° C.) | MIC against K. pneumonia ([6]; Klebsiella pneumonia, 5×10^5 CFU/mL, 10 h cultivation at 37° C.) | MIC against P. mirabilis ([7]; Proteus mirabilis, 5×10^5 CFU/mL, 10 h cultivation at 37° C.)
50 µg/mL: MIC against S. marcescens ([1]; Serratia marcescens, 5×10^5 CFU/mL, 10 h cultivation at 37° C.) | MIC against P. vulgaris ([5]; Proteus vulgaris, 5×10^5 CFU/mL, 10 h cultivation at 37° C.) | MIC against M. catarrhalis ([8]; Moraxella catarrhalis, 5×10^5 CFU/mL, 10 h cultivation at 37° C.) | MIC against A. hydrophila ([10]; Aeromonas hydrophila, 5×10^5 CFU/mL, 10 h cultivation at 37° C.) | MIC against E. coli BL21 ([11]; E. coli BL21, 5×10^5 CFU/mL, 10 h cultivation at 37° C.)

PRT239 (SAGPCTPNPCHNGGTCEISEAYRGDTFIGYVCKCPRGFNGIHCQ; listed as Homo sapiens)
100 µg/mL: MIC (μg/mL) C. diversus [2, 13]
12.5 µg/mL: MIC (μg/mL) S. marcescens [1, 12] | MIC (μg/mL) P. aeruginosa [3, 14] | MIC (μg/mL) P. vulgaris [5, 15] | MIC (μg/mL) K. pneumonia [6, 16] | MIC (μg/mL) P. mirabilis [7, 17] | MIC (μg/mL) E. cloacae [9, 19] | MIC (μg/mL) A. hydrophila [10, 20] | MIC (μg/mL) E. coli BL21 [11, 21]
25 µg/mL: MIC [4] | MIC (μg/mL) M. catarrhalis [8, 18]

PRT921 (NIDDCASAACFHGATCHDRVASFYCECPHGRTGLLCH; listed as Homo sapiens)
12.5 µg/mL: MIC ([1]; S. marcescens, 10 h cultivation at 37° C.) | MIC ([2]; C. diversus, 10 h cultivation at 37° C.) | MIC [4] | MIC ([6]; K. pneumonia, 10 h cultivation at 37° C.) | MIC ([7]; P. mirabilis, 10 h cultivation at 37° C.) | MIC ([9]; E. cloacae, 10 h cultivation at 37° C.) | MIC ([11]; E. coli BL21, 10 h cultivation at 37° C.)
25 µg/mL: MIC ([3]; P. aeruginosa, 10 h cultivation at 37° C.) | MIC ([5]; P. vulgaris, 10 h cultivation at 37° C.) | MIC ([8]; M. catarrhalis, 10 h cultivation at 37° C.) | MIC ([10]; A. hydrophila, 10 h cultivation at 37° C.)

PRT554 (CNCESDFTDGTCEDLTGRCYCRPNFSGERCDVCAEGFTGFPSCYPT; listed as Homo sapiens)
25 µg/mL: MIC against S. marcescens [1, 22] | MIC against C. diversus [2, 22] | MIC against P. mirabilis [7, 22] | MIC against E. cloacae [9, 22]
50 µg/mL: MIC against K. pneumonia [6, 22] | MIC against M. catarrhalis [8, 22] | MIC against E. coli BL21 [11, 22]
12.5 µg/mL: MIC against P. aeruginosa [3, 22] | MIC [4] | MIC against P. vulgaris [5, 22] | MIC against A. hydrophila [10, 22]

PRT1168 (NINDCSQNPCHNGGTCRDLVNDFYCDCKNGWKGKTCH; listed as Homo sapiens)
12.5 µg/mL: MIC S. marcescens [1, 23] | MIC C. diversus [2, 23] | MIC P. mirabilis [7, 23] | MIC E. cloacae [9, 23] | MIC E. coli BL21 [11, 23]
25 µg/mL: MIC P. aeruginosa [3, 23] | MIC [4]
50 µg/mL: MIC P. vulgaris [5, 23] | MIC K. pneumonia [6, 23] | MIC M. catarrhalis [8, 23] | MIC A. hydrophila [10, 23]

PRT889 (DVNECVSNPCQNDATCLDQIGEFQCICMPGYEGVHCE; listed as Homo sapiens)
25 µg/mL: MIC (μg/mL) S. marcescens [1, 12] | MIC (μg/mL) P. aeruginosa [3, 14] | MIC [4] | MIC (μg/mL) P. mirabilis [7, 17]
12.5 µg/mL: MIC (μg/mL) C. diversus [2, 13] | MIC (μg/mL) P. vulgaris [5, 15] | MIC (μg/mL) K. pneumonia [6, 16] | MIC (μg/mL) M. catarrhalis [8, 18] | MIC (μg/mL) E. cloacae [9, 19] | MIC (μg/mL) A. hydrophila [10, 20] | MIC (μg/mL) E. coli BL21 [11, 21]
